Measurements taken from patent US5587392A, “Azolyl methyl phenyl derivatives having aromatase inhibitory activity” (Mochida Pharmaceutical Co., Ltd., priority 1994, dated 1996).
Several values for one entry are separate records, joined by “and”; a condition that tells them apart may be missing. Equal values may be shown once.

How the values were obtained:
[1] = test system: cleavage enzymes of cholesterol side chains; details: related art; cited from earlier work
[2] = test system: plasma aldosterone; test: Lowering effect on plasma aldosterone; assay type: in vivo, male SD rats
[3] = test system: plasma 17α-hydroxyprogesterone; test: Elevating effect on plasma 17α-hydroxyprogesterone; assay type: in vivo, male SD rats
[4] = test system: biosynthesis of aldosterone; details: related art; cited from earlier work

Compound | decrease of glucocorticoids and mineral corticoids [1] | potency to inhibit cleavage enzymes of cholesterol side chains [1] | minimal effective dose ([2]; Rattus norvegicus, po, read-out: dose decreasing plasma aldosterone level) [mg/kg] | Decrease in plasma aldosterone ([2]; rat, in vivo) | change of plasma levels of aldosterone ([2]; rat, in vivo) | minimal effective dose ([3]; Rattus norvegicus, po, read-out: dose elevating plasma 17α-hydroxyprogesterone level) [mg/kg] | Elevation in plasma 17α-hydroxyprogesterone ([3]; rat, in vivo) | change of plasma levels of 17α-hydroxyprogesterone ([3]; rat, in vivo) | inhibition of the biosynthesis of aldosterone [4]
CCC1(c2ccc(N)cc2)CCC(=O)NC1=O (stereo not drawn) [AG, Aminoglutethimide] | causes therefore the decrease of glucocorticoids and mineral corticoids | higher potency to inhibit cleavage enzymes of cholesterol side chains | – | – | – | – | – | – | –
N#Cc1ccc(C2CCCc3cncn32)cc1 (stereo not drawn) [CGS 16949A, 5-(p-cyanophenyl)-5,6,7,8-tetrahydroimidazo[1,5-a]pyridine] | – | – | ≥ 0.1 | 37% and 55% | did change | ≥ 0.1 | 169% and 313% | did change | inhibits the biosynthesis of aldosterone
